The source made the active and inactive calls. No rule for the calls is given here.
Test system: CCRIS mutagenicity, Ames/micronucleus/aberration tests
Experiment: CCRIS mutagenicity studies
[1] = Test System: AMES SALMONELLA TYPHIMURIUM, Strain/Indicator: TA98, Metabolic Activation: NONE, Method: STANDARD PLATE
[2] = Test System: AMES SALMONELLA TYPHIMURIUM, Strain/Indicator: TA98, Metabolic Activation: RAT, LIVER, S-9, Method: STANDARD PLATE

Nc1cc([N+](=O)[O-])cc(Cl)c1O
mutagenic call (Test System: AMES SALMONELLA TYPHIMURIUM, Strain/Indicator: TA97, Metabolic Activation: HAMSTER, LIVER, S-9, AROCLOR 1254 (10%), Method: PREINCUBATION): active; positive
mutagenic call (Test System: AMES SALMONELLA TYPHIMURIUM, Strain/Indicator: TA97, Metabolic Activation: NONE, Method: PREINCUBATION): active; positive
mutagenic call (Test System: AMES SALMONELLA TYPHIMURIUM, Strain/Indicator: TA97, Metabolic Activation: RAT, LIVER, S-9, AROCLOR 1254 (10%), Method: PREINCUBATION): active; positive
mutagenic call (Test System: AMES SALMONELLA TYPHIMURIUM, Strain/Indicator: TA98, Metabolic Activation: HAMSTER, LIVER, S-9, AROCLOR 1254 (10%), Method: PREINCUBATION): active; positive
mutagenic call (Test System: AMES SALMONELLA TYPHIMURIUM, Strain/Indicator: TA98, Metabolic Activation: NONE, Method: PREINCUBATION): active; positive
mutagenic call (Test System: AMES SALMONELLA TYPHIMURIUM, Strain/Indicator: TA98, Metabolic Activation: RAT, LIVER, S-9, AROCLOR 1254 (10%), Method: PREINCUBATION): active; positive
mutagenic call (Test System: AMES SALMONELLA TYPHIMURIUM, Strain/Indicator: TA100, Metabolic Activation: HAMSTER, LIVER, S-9, AROCLOR 1254 (10%), Method: PREINCUBATION): inactive; negative
mutagenic call (Test System: AMES SALMONELLA TYPHIMURIUM, Strain/Indicator: TA100, Metabolic Activation: NONE, Method: PREINCUBATION): active; positive
mutagenic call (Test System: AMES SALMONELLA TYPHIMURIUM, Strain/Indicator: TA100, Metabolic Activation: RAT, LIVER, S-9, AROCLOR 1254 (10%), Method: PREINCUBATION): active; positive
mutagenic call (Test System: AMES SALMONELLA TYPHIMURIUM, Strain/Indicator: TA1535, Metabolic Activation: HAMSTER, LIVER, S-9, AROCLOR 1254 (10%), Method: PREINCUBATION): inactive; negative
mutagenic call (Test System: AMES SALMONELLA TYPHIMURIUM, Strain/Indicator: TA1535, Metabolic Activation: NONE, Method: PREINCUBATION): inactive; negative
mutagenic call (Test System: AMES SALMONELLA TYPHIMURIUM, Strain/Indicator: TA1535, Metabolic Activation: RAT, LIVER, S-9, AROCLOR 1254 (10%), Method: PREINCUBATION): inactive; negative

O=c1ccc2cc3cc4cccc5ccc(c2c1)c3c54
mutagenic call [1]: inactive; negative
mutagenic call (Test System: AMES SALMONELLA TYPHIMURIUM, Strain/Indicator: TA98, Metabolic Activation: RAT, LIVER, S-9, AROCLOR 1254, Method: STANDARD PLATE): inactive; negative
mutagenic call (Test System: AMES SALMONELLA TYPHIMURIUM, Strain/Indicator: TA100, Metabolic Activation: RAT, LIVER, S-9, AROCLOR 1254, Method: STANDARD PLATE): active; positive

CC(=O)Nc1nc2c3cccnc3cc(C)c2n1C
mutagenic call (Test System: AMES SALMONELLA TYPHIMURIUM, Strain/Indicator: TA98(1,8-DNP6), Metabolic Activation: RAT, LIVER, S-9, Method: STANDARD PLATE): inactive; negative
mutagenic call (Test System: AMES SALMONELLA TYPHIMURIUM, Strain/Indicator: TA98(NR), Metabolic Activation: RAT, LIVER, S-9, Method: STANDARD PLATE): active; positive
mutagenic call [2]: active; positive
mutagenic call (Test System: AMES SALMONELLA TYPHIMURIUM, Strain/Indicator: TA98, Method: STANDARD PLATE): active; positive

Nc1cc(N)c(N=Nc2ccc(S(=O)(=O)O)cc2S(=O)(=O)O)cc1N=Nc1ccc(-c2ccc(N/N=C3\C=CC(=O)C(C(=O)O)=C3)cc2)cc1
mutagenic call (Test System: AMES SALMONELLA TYPHIMURIUM, Strain/Indicator: TA98, Metabolic Activation: HAMSTER, LIVER, S-9, Method: PREINCUBATION (PRIVAL METHOD)): active; positive

CCc1cccc2c(CCO)c[nH]c12
mutagenic call [1]: inactive; negative
mutagenic call [2]: inactive; negative
mutagenic call (Test System: AMES SALMONELLA TYPHIMURIUM, Strain/Indicator: TA100, Metabolic Activation: NONE, Method: STANDARD PLATE): inactive; negative
mutagenic call (Test System: AMES SALMONELLA TYPHIMURIUM, Strain/Indicator: TA100, Metabolic Activation: RAT, LIVER, S-9, Method: STANDARD PLATE): inactive; negative
mutagenic call (Test System: AMES SALMONELLA TYPHIMURIUM, Strain/Indicator: TA1535, Metabolic Activation: NONE, Method: STANDARD PLATE): inactive; negative
mutagenic call (Test System: AMES SALMONELLA TYPHIMURIUM, Strain/Indicator: TA1535, Metabolic Activation: RAT, LIVER, S-9, Method: STANDARD PLATE): inactive; negative
mutagenic call (Test System: AMES SALMONELLA TYPHIMURIUM, Strain/Indicator: TA1537, Metabolic Activation: NONE, Method: STANDARD PLATE): inactive; negative
mutagenic call (Test System: AMES SALMONELLA TYPHIMURIUM, Strain/Indicator: TA1537, Metabolic Activation: RAT, LIVER, S-9, Method: STANDARD PLATE): inactive; negative
mutagenic call (Test System: E. COLI, Strain/Indicator: WP2 UVRA, Metabolic Activation: NONE, Method: STANDARD PLATE): inactive; negative
mutagenic call (Test System: E. COLI, Strain/Indicator: WP2 UVRA, Metabolic Activation: RAT, LIVER, S-9, Method: STANDARD PLATE): inactive; negative

N#Cc1nn(-c2c(Cl)cc(C(F)(F)F)cc2Cl)c(N)c1S(=O)C(F)(F)F (stereo not drawn)
mutagenic call (End Point: Ames Salmonella typhimurium, Test System: TA98, Metabolic Activation: None, Method: Plate incorporation): inactive; negative
mutagenic call (End Point: Ames Salmonella typhimurium, Test System: TA98, Metabolic Activation: Rat, Liver, S-9, Aroclor 1254, Method: Plate incorporation): inactive; negative
mutagenic call (End Point: Ames Salmonella typhimurium, Test System: TA100, Metabolic Activation: None, Method: Plate incorporation): inactive; negative
mutagenic call (End Point: Ames Salmonella typhimurium, Test System: TA100, Metabolic Activation: Rat, Liver, S-9, Aroclor 1254, Method: Plate incorporation): inactive; negative
mutagenic call (End Point: Ames Salmonella typhimurium, Test System: TA1535, Metabolic Activation: None, Method: Plate incorporation): inactive; negative
mutagenic call (End Point: Ames Salmonella typhimurium, Test System: TA1535, Metabolic Activation: Rat, Liver, S-9, Aroclor 1254, Method: Plate incorporation): inactive; negative
mutagenic call (End Point: Ames Salmonella typhimurium, Test System: TA1537, Metabolic Activation: None, Method: Plate incorporation): inactive; negative
mutagenic call (End Point: Ames Salmonella typhimurium, Test System: TA1537, Metabolic Activation: Rat, Liver, S-9, Aroclor 1254, Method: Plate incorporation): inactive; negative
mutagenic call (End Point: In vitro chromosomal aberrations, Test System: Human lymphocytes (male and female), Metabolic Activation: None): inactive; negative
mutagenic call (End Point: In vitro chromosomal aberrations, Test System: Human lymphocytes (male and female), Metabolic Activation: Rat, Liver, S-9, Aroclor 1254): inactive; negative
mutagenic call (End Point: In vivo micronucleus, Test System: Bone marrow polychromatic erythrocytes, Species: Mouse, Strain/Sex: CD-1/Male and female, Route: Oral): inactive; negative
mutagenic call (Test System: HGPRT mutations, Strain/Indicator: Chinese hamster V79 cells, Metabolic Activation: None): inactive; negative
mutagenic call (Test System: HGPRT mutations, Strain/Indicator: Chinese hamster V79 cells, Metabolic Activation: Rat, Liver, S-9, Aroclor 1254): inactive; negative
